This note sets out measurements from patent US8987320B2, “Solid salt forms of a pyrrole substituted 2-indolinone” (Zoetis LLC, priority 2005, dated 2015).

Several values for one entry are separate records, joined by “and”; a condition that tells them apart may be missing. Identical values can stand only once. Like-named read-outs stand apart in the source and are kept apart here.

The nature of one data set: Wettability with water. The format is physicochemical.
A short description of data set [1]: Compound I phosphate plasma levels in dogs with mast cell tumors (LC/MS/MS). The format is in vivo, canine. Particulars: for concentration at 8 h / Cmax at 8 h: dog, plasma, oral; for Cmax at 8 h: dogs. As for the experimental part:
Study Design. This study was a proof of target modulation study in dogs with recurrent or metastatic grade MCTs. Patients received a single oral dose of Compound I phosphate at 3.25 mg/kg. Using a 6-mm punch biopsy instrument, samples were obtained from the tumor before Compound I phosphate administration and 8 hours (h) after treatment. When possible, multiple biopsies were taken. Each sample was flash frozen in liquid nitrogen and stored at −70° centigrade (C) before analysis. Blood samples for analysis of plasma levels of Compound I phosphate were obtained at the same time as tumor biopsies (see below).
Compound I Phosphate Plasma Levels. Blood samples were drawn from the jugular vein and placed into a red-top serum collection vacuum glass tube. Specimens were kept at room temperature, allowed to clot, centrifuged at 1500 rpm at 4° C. for 10 minutes, transferred to cryovials, and plasma frozen at −70° C. pending analysis. Briefly, plasma samples (20 μl) or Compound I phosphate standards in canine plasma were mixed with methanol (200 μl) containing DL-propranolol hydrochloride (internal standard) in a 96-well polypropylene plate (Orochem Technology, Westmont, Ill.). The plate was mixed by vortex for 1 min, and the samples were centrifuged for 10 min at 4000 rpm. Ten microliters of the supernatant were injected onto the LC/MS/MS system, in which separation occurred on a BataBasic C-18 (5 μm, 100×4.6 mm) reverse-phase high-performance liquid chromatography column (Keystone Scientific, Foster City, Calif.). The amount of Compound I phosphate and the internal standard in each canine plasma sample were quantified based on standard curves generated using known amounts of compound ranging from 0.2 to 500 ng/ml.

On to `Cc1[nH]c(/C=C2\C(=O)Nc3ccc(F)cc32)c(C)c1C(=O)NCCN1CCCC1` [Compound I phosphate], for which, in the data set “Wettability with water”, the “wettability with water compared with Compound I free base” value is reported as “much better”. Moreover, the concentration at 8 h amounted to 137 ± 36 ng/mL in data set [1] (3.25 mg/kg, single dose at 3.25 mg/kg, 8 h, read-out: average plasma concentration for dogs that did not score for KIT target modulation) and 79.2 ± 41 ng/mL in data set [1] (3.25 mg/kg, single dose at 3.25 mg/kg, 8 h, read-out: average plasma concentration for dogs with evidence of KIT target modulation). Further, the Cmax at 8 h is 105 ± 9 ng/mL in data set [1] (3.25 mg/kg, single dose at 3.25 mg/kg, read-out: plasma concentration at 8 h (approximately Cmax), average) and 33.2 to 186 ng/mL in data set [1] (3.25 mg/kg, single dose at 3.25 mg/kg, read-out: plasma concentration at 8 h (approximately Cmax), range over dogs). Moreover, the “Plasma Compound I phosphate postdose” value in data set [1] (individual dogs, single oral dose 3.25 mg/kg, 8 h after dosing, 3.25 mg/kg) is 0.3 ng/mL and 83.5 ng/mL and 98.0 ng/mL and 116.0 ng/mL and 121.0 ng/mL and 186.0 ng/mL and 103.0 ng/mL and 111.0 ng/mL and 158.0 ng/mL and 65.3 ng/mL and 95.4 ng/mL and 119.0 ng/mL and 81.0 ng/mL and 33.2 ng/mL. In addition, the “dogs with plasma levels considered to be in the therapeutic range” value in data set [1] (single dose at 3.25 mg/kg, 8 h) is on record as “Twelve”.
